Among the test systems are A498 renal; A549 NSCLC; ACHN renal; CAKI-1 renal; CCRF-CEM leukemia; HOP-62 NSCLC; HOP-92 NSCLC; K-562 leukemia; SF-268 CNS; UO-31 renal.
Experiment in all cases: DTP human tumour cell line panel, 48 h

Drawing on PubChem BioAssay (NCI), this text covers TGI and GI50 for 15 compounds.

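All cell lines were grown in 96-well plates and treated with compound for 48 hours. At the GI50, growth is halved. The concentration for full growth arrest is given as TGI.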

In general, TGI refers to the concentration at which net growth stops. A lower TGI goes with more potent growth arrest. As for `CC1OC(OC2C[C@](O)(C(=O)CBr)Cc3c(O)c4c(c(O)c32)C(=O)c2ccccc2C4=O)C(F)C(O)C1O` (stereo not given in full), the TGI in the assay with A498 renal stood at 30.9 µM; with A549 NSCLC, 30 µM; in the assay with ACHN renal, 7.08 µM; in the assay with CAKI-1 renal it was 49 µM; with CCRF-CEM leukemia, 3.04 µM; in the assay with HOP-62 NSCLC it was 66 µM. Also, the TGI in the assay on HOP-92 NSCLC is 40.6 µM; in the assay on K-562 leukemia it was more than 38.8 µM; in the assay on SF-268 CNS, 73.7 µM; with UO-31 renal, 8.9 µM.

Take `CCOC(=O)/C=C/c1c[nH]c(=O)[nH]c1=O`: the TGI with A498 renal, in the assay on A549 NSCLC, with CAKI-1 renal, in the assay on CCRF-CEM leukemia, with HOP-62 NSCLC and in the assay on HOP-92 NSCLC was more than 75 µM throughout. In addition, the TGI in the assay on K-562 leukemia, in the assay with SF-268 CNS and in the assay on UO-31 renal was more than 75 µM throughout.

For orientation: GI50 means the concentration that inhibits growth by half. Take `CCCCCCCCCC[N+](C)(C)C`: the GI50 in the assay on A498 renal was 1.78 µM; in the assay on A549 NSCLC, 2.52 µM; in the assay with ACHN renal it was 2.39 µM; in the assay with CAKI-1 renal, 2.52 µM; in the assay on CCRF-CEM leukemia it was 0.739 µM; in the assay on HOP-62 NSCLC, 1.18 µM. In addition, the GI50 with HOP-92 NSCLC was 0.677 µM; in the assay with K-562 leukemia it was 1.82 µM; in the assay on SF-268 CNS, 1.98 µM; with UO-31 renal, 4.91 µM. The TGI is 7.81 µM with A498 renal; 8.43 µM in the assay with A549 NSCLC; 12.5 µM in the assay on ACHN renal; 15.3 µM with CAKI-1 renal; 2.32 µM in the assay with CCRF-CEM leukemia; 3.07 µM with HOP-62 NSCLC. Moreover, the TGI with HOP-92 NSCLC stood at 4.6 µM; in the assay with K-562 leukemia it was 7.82 µM; in the assay with SF-268 CNS, 5.77 µM; with UO-31 renal it was 20 µM.

As to `CCCCCCC(=O)c1ccc2ccccc2c1O`, the TGI with A498 renal is more than 100 µM; in the assay on ACHN renal it was more than 100 µM; in the assay with CAKI-1 renal, 95.4 µM; in the assay on CCRF-CEM leukemia, more than 100 µM; in the assay on HOP-62 NSCLC, more than 100 µM; in the assay on HOP-92 NSCLC it was more than 100 µM. Moreover, the TGI in the assay with K-562 leukemia, in the assay with SF-268 CNS and in the assay with UO-31 renal was more than 100 µM each time.

For `N[C@@H](Cc1ccc2oc3cc(=O)c4ccccc4c-3nc2c1)C(=O)O`, the TGI was more than 100 µM in the assay on A498 renal; more than 100 µM with A549 NSCLC; more than 100 µM with ACHN renal; more than 100 µM in the assay with CAKI-1 renal; more than 100 µM with CCRF-CEM leukemia; 48.2 µM in the assay on HOP-62 NSCLC. The TGI in the assay with HOP-92 NSCLC, in the assay with K-562 leukemia, in the assay with SF-268 CNS and in the assay on UO-31 renal was more than 100 µM throughout.

`CSS(C)(=O)=O`: the TGI in the assay on A498 renal is more than 100 µM; in the assay with A549 NSCLC, more than 100 µM; with ACHN renal it was 56.9 µM; with CAKI-1 renal it was 43.2 µM; in the assay on CCRF-CEM leukemia, more than 100 µM; in the assay with HOP-62 NSCLC, more than 100 µM. Moreover, the TGI with K-562 leukemia came out at 78.6 µM; in the assay with SF-268 CNS, 96.9 µM; in the assay on UO-31 renal, 52.1 µM.

In the case of `COc1ccc2c(c1)C=C(C(C)(C)C)NS2(=O)=O`, the TGI in the assay with A498 renal, in the assay with A549 NSCLC, in the assay with ACHN renal, in the assay on CAKI-1 renal, with CCRF-CEM leukemia and with HOP-62 NSCLC was more than 100 µM throughout. In addition, the TGI in the assay on HOP-92 NSCLC, with K-562 leukemia, in the assay on SF-268 CNS and in the assay on UO-31 renal was more than 100 µM each time.

Turning to `CC(c1ccccc1)C(O)S(=O)(=O)O` (stereo not given), the TGI in the assay with A498 renal, in the assay with A549 NSCLC, in the assay with ACHN renal, in the assay with CCRF-CEM leukemia, with HOP-92 NSCLC and in the assay with SF-268 CNS was more than 100 µM each time. The same compound displayed a TGI with UO-31 renal of more than 100 µM.

Consider `C=CCOC1OC(CS(=O)(=O)O)C(OC(C)=O)C(OC(C)=O)C1OC(C)=O` (stereo not given), for which the TGI in the assay on A498 renal, in the assay on CAKI-1 renal, in the assay with CCRF-CEM leukemia, in the assay on HOP-62 NSCLC, in the assay with HOP-92 NSCLC and in the assay with K-562 leukemia was more than 100 µM each time. This compound had a TGI in the assay on UO-31 renal of more than 100 µM.

Consider `COc1cc2c3cc1Oc1c(OC)c(OC)cc4c1C(Cc1ccc(O)c(c1)-c1cc(ccc1OC)CC3N(C)CC2)N(C)CC4` (stereo not given), for which the TGI in the assay on A498 renal was 46.3 µM; in the assay with A549 NSCLC, more than 100 µM; in the assay with ACHN renal, 56.8 µM; in the assay on CAKI-1 renal, 59.6 µM; in the assay on HOP-92 NSCLC, 53.7 µM; in the assay on K-562 leukemia, 61.8 µM. In addition, the TGI was 72.3 µM with SF-268 CNS and 29.2 µM in the assay with UO-31 renal.

Regarding `COc1ccc(-c2c3c(nc4[nH]c(=S)[nH]c(=S)c24)CCCC3)cc1OC`, the TGI was 59 µM with A549 NSCLC; more than 100 µM in the assay with ACHN renal; more than 100 µM with CAKI-1 renal; 73.1 µM with CCRF-CEM leukemia; more than 100 µM in the assay with HOP-62 NSCLC; more than 100 µM with K-562 leukemia. Moreover, the TGI in the assay on SF-268 CNS and in the assay with UO-31 renal was more than 100 µM in each case.

For the compound `c1ccc(N2N=C3N(c4ccccc4)C2N3c2ccccc2)cc1`, the TGI is more than 100 µM in the assay with A498 renal; more than 100 µM in the assay on A549 NSCLC; more than 100 µM with ACHN renal; more than 100 µM with CAKI-1 renal; 71.8 µM in the assay on CCRF-CEM leukemia; more than 100 µM with HOP-62 NSCLC. Further, the TGI in the assay with HOP-92 NSCLC is 60.8 µM; in the assay with K-562 leukemia it was 59.5 µM; in the assay on SF-268 CNS, more than 100 µM; in the assay on UO-31 renal, more than 100 µM.

For the compound `COc1ccc(OCC(C)(C)O)cc1`, the TGI in the assay on A498 renal, in the assay with A549 NSCLC, in the assay with CAKI-1 renal, in the assay on CCRF-CEM leukemia, with HOP-62 NSCLC and in the assay on HOP-92 NSCLC was more than 100 µM throughout. Further, the TGI with K-562 leukemia, in the assay with SF-268 CNS and in the assay on UO-31 renal was more than 100 µM in each case.

`CC(C)(C)C(=O)CC(=O)C(F)(F)C(F)(F)C(F)(F)F.[Ag]`: the TGI in the assay on A549 NSCLC was more than 100 µM; in the assay with ACHN renal, 28.7 µM; with CAKI-1 renal it was 27.8 µM; with CCRF-CEM leukemia it was 43.8 µM; with HOP-62 NSCLC it was 50.9 µM; with HOP-92 NSCLC, 40.2 µM. The results for the TGI with K-562 leukemia, in the assay with SF-268 CNS and with UO-31 renal were 65.8 µM, 40.3 µM and 60.4 µM, respectively.

`COc1ccc2c(c1)c(=O)c1c(NCCCN(C)C)ccc3ncn2c31`: the TGI in the assay with A498 renal came to 24.2 µM; in the assay on A549 NSCLC it was 14.5 µM; in the assay on ACHN renal, 16.8 µM; in the assay on CAKI-1 renal, 22.6 µM; with CCRF-CEM leukemia, 45.3 µM; in the assay with HOP-62 NSCLC, 15 µM. Also, the TGI in the assay on HOP-92 NSCLC is 19.5 µM; with K-562 leukemia it was more than 56.1 µM; in the assay on SF-268 CNS, 16.1 µM; in the assay with UO-31 renal, 16.1 µM.
